Measured values as given in the NIST ThermoML archive (doi:10.1016/j.jct.2011.12.010).

Experiment: molar heat capacity at constant pressure
Conditions: 101.33 kPa, Vacuum adiabatic calorimetry

CC(C)(C)Cc1ccccc1 [(2,2-dimethylpropyl)benzene]
molar heat capacity at constant pressure [J/K/mol]
Conditions | Crystal | Liquid
5 K | 0.3584 | –
6.43 K | 0.79 | –
6.83 K | 0.95 | –
7.1 K | 1.05 | –
7.5 K | 1.2 | –
7.91 K | 1.41 | –
8.27 K | 1.62 | –
8.57 K | 1.81 | –
8.9 K | 2.04 | –
9.24 K | 2.3 | –
9.58 K | 2.54 | –
9.91 K | 2.77 | –
10 K | 2.835 | –
10.24 K | 3 | –
10.55 K | 3.28 | –
10.86 K | 3.54 | –
11.15 K | 3.76 | –
11.45 K | 4.08 | –
11.74 K | 4.36 | –
12.04 K | 4.69 | –
12.51 K | 5.2 | –
13.17 K | 6 | –
13.78 K | 6.68 | –
14.4 K | 7.42 | –
14.99 K | 8.11 | –
15 K | 8.156 | –
15.59 K | 8.88 | –
16.17 K | 9.65 | –
16.76 K | 10.42 | –
17.35 K | 11.18 | –
18.02 K | 12.15 | –
18.82 K | 13.47 | –
19.44 K | 14.45 | –
20 K | 15.37 | –
20.07 K | 15.49 | –
20.87 K | 16.75 | –
21.6 K | 17.96 | –
22.31 K | 19.18 | –
22.92 K | 20.15 | –
23.68 K | 21.34 | –
24.39 K | 22.44 | –
25 K | 23.31 | –
25.18 K | 23.58 | –
25.93 K | 24.66 | –
26.71 K | 25.76 | –
27.52 K | 26.89 | –
28.33 K | 28.13 | –
29.16 K | 29.24 | –
30 K | 30.36 | –
30.01 K | 30.42 | –
30.87 K | 31.42 | –
31.75 K | 32.74 | –
32.64 K | 33.75 | –
33.41 K | 34.7 | –
34.46 K | 36.13 | –
35 K | 36.76 | –
35.4 K | 37.3 | –
36.35 K | 38.43 | –
37.32 K | 39.67 | –
38.31 K | 40.94 | –
39.3 K | 41.89 | –
40 K | 42.83 | –
40.33 K | 43.02 | –
41.36 K | 44.25 | –
42.4 K | 45.57 | –
43.47 K | 46.7 | –
44.54 K | 47.93 | –
45 K | 48.21 | –
45.63 K | 48.9 | –
46.73 K | 49.79 | –
47.83 K | 50.85 | –
48.96 K | 51.7 | –
50 K | 52.68 | –
50.08 K | 52.7 | –
51.22 K | 53.77 | –
52.37 K | 54.62 | –
53.54 K | 55.66 | –
54.59 K | 56.42 | –
56 K | 57.64 | –
57.09 K | 58.58 | –
58.29 K | 59.72 | –
59.5 K | 60.71 | –
60 K | 61.21 | –
60.59 K | 61.7 | –
61.93 K | 63.06 | –
63.16 K | 64.15 | –
64.57 K | 65.26 | –
65.64 K | 66.12 | –
66.89 K | 67.2 | –
68.15 K | 68 | –
69.4 K | 69.06 | –
70 K | 69.54 | –
70.99 K | 70.19 | –
72.9 K | 71.7 | –
74.83 K | 72.92 | –
76.87 K | 74.43 | –
78.7 K | 75.75 | –
79.98 K | 76.76 | –
80 K | 76.67 | –
80.65 K | 77.08 | –
81.93 K | 78.1 | –
82.61 K | 78.8 | –
83.87 K | 79.5 | –
84.58 K | 80.15 | –
85.81 K | 80.93 | –
86.55 K | 81.42 | –
87.75 K | 82.4 | –
88.51 K | 82.92 | –
89.69 K | 83.89 | –
90 K | 84.14 | –
90.49 K | 84.64 | –
91.64 K | 85.39 | –
92.48 K | 86.14 | –
93.59 K | 86.97 | –
95.54 K | 88.3 | –
97.5 K | 89.8 | –
99.45 K | 91.29 | –
100 K | 91.54 | –
101.41 K | 92.54 | –
103.37 K | 94.12 | –
105.32 K | 95.53 | –
107.28 K | 97.03 | –
109.23 K | 98.11 | –
110 K | 98.78 | –
111.18 K | 99.61 | –
113.14 K | 100.85 | –
115.09 K | 102.6 | –
117.46 K | 104.26 | –
119.37 K | 105.34 | –
120 K | 105.9 | –
121.31 K | 106.92 | –
123.26 K | 108 | –
125.2 K | 109.67 | –
127.13 K | 110.75 | –
129.07 K | 111.99 | –
130 K | 112.8 | –
131 K | 113.49 | –
132.93 K | 115.07 | –
134.85 K | 116.15 | –
136.78 K | 117.4 | –
138.7 K | 118.65 | –
140 K | 119.7 | –
140.61 K | 120.14 | –
142.53 K | 121.39 | –
144.43 K | 122.97 | –
146.34 K | 124.22 | –
148.22 K | 125.63 | –
150 K | 126.5 | –
150.12 K | 126.88 | –
152.5 K | 128.37 | –
155.37 K | 130.04 | –
158.24 K | 132.28 | –
160 K | 133.4 | –
161.11 K | 134.11 | –
163.99 K | 135.94 | –
166.87 K | 138.27 | –
169.76 K | 140.35 | –
170 K | 140.3 | –
172.66 K | 141.93 | –
175.55 K | 144.34 | –
178.45 K | 146.25 | –
180 K | 147.4 | –
181.36 K | 148.33 | –
184.27 K | 150.32 | –
187.18 K | 152.57 | –
190 K | 154.6 | –
190.11 K | 154.9 | –
194.33 K | 157.56 | –
197.18 K | 160.05 | –
200 K | 162 | –
200.37 K | 162.3 | –
203.56 K | 164.63 | –
206.46 K | 166.79 | –
209.27 K | 168.78 | –
210 K | 169.1 | –
212.11 K | 170.36 | –
215.02 K | 172.52 | –
217.92 K | 174.27 | –
220 K | 175.9 | –
220.82 K | 176.51 | –
223.7 K | 178.18 | –
226.59 K | 180.26 | –
229.46 K | 182.33 | –
230 K | 182.6 | –
232.33 K | 184.33 | –
235.2 K | 186.58 | –
238.05 K | 188.32 | –
239.91 K | 189.73 | –
240 K | 189.4 | –
240.89 K | 190.48 | –
240.92 K | 190.57 | –
241.92 K | 190.98 | –
242.92 K | 191.9 | –
243.72 K | 192.4 | –
243.92 K | 192.73 | –
244.93 K | 193.73 | –
246 K | 195.64 | –
246.56 K | 197.88 | –
246.6 K | 202.12 | –
247.1 K | 197.38 | –
248.19 K | 200.88 | –
249.28 K | 206.03 | –
249.34 K | 207.61 | –
250 K | 196.1 | –
250.36 K | 213.26 | –
251.42 K | 222.66 | –
252.01 K | 245.27 | –
252.39 K | 417.05 | –
252.46 K | 249.27 | –
253.4 K | 315.03 | –
254.15 K | 685.44 | –
254.18 K | 538.11 | –
254.69 K | 1232.2 | –
254.95 K | 2919.2 | –
255.01 K | 4462.3 | –
255.06 K | 8092.4 | –
255.09 K | 5555.7 | –
255.17 K | 8555.5 | –
255.21 K | 9885.8 | –
255.43 K | 199.7 | 249.6
256.43 K | – | 250.01
257.37 K | – | 252.18
257.44 K | – | 250.6
258.44 K | – | 251.09
258.78 K | – | 252.09
259.45 K | – | 251.68
260 K | – | 252
260.46 K | – | 252.26
261.48 K | – | 252.92
262.48 K | – | 253.42
263.49 K | – | 254
264.48 K | – | 254.59
264.99 K | – | 254.92
265.49 K | – | 255.09
266.49 K | – | 255.67
267.49 K | – | 256
268.67 K | – | 256.58
270 K | – | 257.2
271.15 K | – | 257.83
277.28 K | – | 260.82
280 K | – | 262.5
283.39 K | – | 264.31
289.47 K | – | 267.64
290 K | – | 268
295.52 K | – | 270.8
298.15 K | – | 271.9
300 K | – | 272.6
300.23 K | – | 272.71
300.79 K | – | 273.13
301.54 K | – | 273.46
304.11 K | – | 274.29
304.68 K | – | 274.54
307.54 K | – | 275.37
307.98 K | – | 275.62
308.57 K | – | 275.71
310 K | – | 276.3
311.84 K | – | 276.95
312.43 K | – | 277.2
313.51 K | – | 277.62
315.67 K | – | 278.2
316.31 K | – | 278.53
319.32 K | – | 279.36
319.51 K | – | 279.86
320 K | – | 279.8
320.02 K | – | 279.95
323.33 K | – | 281.36
323.89 K | – | 281.44
325.26 K | – | 281.86
327.15 K | – | 283.02
327.74 K | – | 283.02
330 K | – | 284.4
330.95 K | – | 285.27
331.19 K | – | 285.18
331.59 K | – | 285.27
334.56 K | – | 287.35
335.41 K | – | 288.01
337.07 K | – | 289.09
338.32 K | – | 289.92
339.23 K | – | 290.51
340 K | – | 290.8
342.07 K | – | 292.33
342.92 K | – | 292.67
343.02 K | – | 292.75
345.8 K | – | 294.83
346.79 K | – | 295.24
348.74 K | – | 295.99
349.52 K | – | 296.82
350 K | – | 297
350.54 K | – | 297.49
